Measurements as given in PubChem BioAssay AID1963981 (Molecular Pharmacology Branch, DTP, NCI, 2024).

Test system: 354836-022-R-J1-PDC multicell spheroid viability
Test: Anticancer human tumor 354836-022-R-J1-PDC patient-derived head and neck squamous cell carcinoma cell line growth inhibition [PI3K]
Settings: for IC50: curve of first compound; for viability, T/C: stronger effect = lower value
Summary of the method: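 Tumor cells were combined with HUVEC and MSCs into spheroids, then dosed with PI3K-inhibitor combinations over half-log ranges capped near clinical Cmax or 10 microM.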
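Also: spheroids exposed to agents for seven days before the viability read.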

`CC(C)NCC(C(=O)N1CCN(c2ncnc3c2C(C)CC3O)CC1)c1ccc(Cl)cc1` (configuration not stated) + CC(Nc1ncnc2nc[nH]c12)c1cc2cccc(Cl)c2c(=O)n1-c1ccccc1 showed an IC50 (second compound 0.0316 µM) of 317 nM, an IC50 (second compound 0.1 µM) of 490 nM and an IC50 (second compound 0.316 µM) of 340 nM. It also gave an IC50 (second compound 1 µM) of 491 nM, an IC50 (second compound 3.16 µM) of 383 nM and an IC50 (second compound 10 µM) of 454 nM. For the same compound, the viability, T/C (second compound 0.0316 µM, first compound 0.0316 µM) was 87.3%, the viability, T/C (second compound 0.0316 µM, first compound 0.1 µM) was 75.8% and the viability, T/C (second compound 0.0316 µM, first compound 0.316 µM) was 47.8%. The viability, T/C (second compound 0.0316 µM, first compound 1 µM) was 27.4%, the viability, T/C (second compound 0.0316 µM, first compound 3.16 µM) was 10.1% and the viability, T/C (second compound 0.0316 µM, first compound 10 µM) was 3.75%. The viability, T/C (second compound 0.1 µM, first compound 0.0316 µM) was 90.7%, the viability, T/C (second compound 0.1 µM, first compound 0.1 µM) was 79.7% and the viability, T/C (second compound 0.1 µM, first compound 0.316 µM) was 52.3%. It also gave a viability, T/C (second compound 0.1 µM, first compound 1 µM) of 43.7%, a viability, T/C (second compound 0.1 µM, first compound 3.16 µM) of 12.9% and a viability, T/C (second compound 0.1 µM, first compound 10 µM) of 3.85%. For the same compound, the viability, T/C (second compound 0.316 µM, first compound 0.0316 µM) was 100%, the viability, T/C (second compound 0.316 µM, first compound 0.1 µM) was 77.7% and the viability, T/C (second compound 0.316 µM, first compound 0.316 µM) was 50.1%. For the same compound, the viability, T/C (second compound 0.316 µM, first compound 1 µM) was 32.2%, the viability, T/C (second compound 0.316 µM, first compound 3.16 µM) was 7.64% and the viability, T/C (second compound 0.316 µM, first compound 10 µM) was 5.53%. The viability, T/C (second compound 1 µM, first compound 0.0316 µM) was 95.2%, the viability, T/C (second compound 1 µM, first compound 0.1 µM) was 84.8% and the viability, T/C (second compound 1 µM, first compound 0.316 µM) was 64.3%. The viability, T/C (second compound 1 µM, first compound 1 µM) was 27.3%, the viability, T/C (second compound 1 µM, first compound 3.16 µM) was 13.8% and the viability, T/C (second compound 1 µM, first compound 10 µM) was 3.16%. The viability, T/C (second compound 3.16 µM, first compound 0.0316 µM) was 102%, the viability, T/C (second compound 3.16 µM, first compound 0.1 µM) was 82.3% and the viability, T/C (second compound 3.16 µM, first compound 0.316 µM) was 52.5%. The viability, T/C (second compound 3.16 µM, first compound 1 µM) was 30.8%, the viability, T/C (second compound 3.16 µM, first compound 3.16 µM) was 12.4% and the viability, T/C (second compound 3.16 µM, first compound 10 µM) was 4.48%. The viability, T/C (second compound 10 µM, first compound 0.0316 µM) was 87.5%, the viability, T/C (second compound 10 µM, first compound 0.1 µM) was 76.7% and the viability, T/C (second compound 10 µM, first compound 0.316 µM) was 61.2%. The viability, T/C (second compound 10 µM, first compound 1 µM) was 28.4%, the viability, T/C (second compound 10 µM, first compound 3.16 µM) was 11% and the viability, T/C (second compound 10 µM, first compound 10 µM) was 3.05%.
